Test results as given in US20250270199A1, “THIAZOLE DERIVATIVES AND METHODS OF USING THE SAME” (Arkansas State University - Jonesboro, priority 2022, published 2025).
In brackets after ≈: the same amount, converted by molar mass. Several values for one entry are separate records, joined by “and”; a condition that tells them apart may be missing. Equal entries are not always repeated. Where two headings read alike, the source gives them in different places.

What was measured:
[1] = tested on: S. aureus ATCC 700699 (Sa 99); test: MIC, broth microdilution, Sa 99; type: cell-based; conditions: for Minimum inhibitory concentration (MIC) Sa 99: Table 1, HT series; for MIC: Staphylococcus aureus
Method: (§1) The broth microdilution method was utilized to determine MIC values of novel thiazole derivatives against different clinically important Gram-positive bacteria according to the guidelines outlined by the Clinical and Laboratory Standards Institute (CLSI) as reported in our recent papers.^1-5 The starting concentration of compounds for MIC determination was 64 μg/mL serially diluted down the wells and the MIC values were recorded in duplicates in three independent experiments on different days.

[2] = tested on: S. aureus ATCC 33592 (Sa 92); test: MIC, broth microdilution, Sa 92; type: cell-based; conditions: Staphylococcus aureus
Method: as §1

[3] = tested on: S. aureus ATCC 33591 (Sa 91); test: MIC, broth microdilution, Sa 91; type: cell-based; conditions: for MIC: Staphylococcus aureus
Method: as §1

[4] = tested on: S. aureus ATCC 25923 (Sa 23); test: MIC, broth microdilution, Sa 23; type: cell-based; conditions: for MIC: Staphylococcus aureus
Method: as §1

[5] = tested on: S. aureus ATCC BAA-2312 (Sa 12); test: MIC, broth microdilution, Sa 12; type: cell-based; conditions: Staphylococcus aureus
Method: as §1

[6] = tested on: E. faecalis ATCC 29212 (Efs 12); test: MIC, broth microdilution, Efs 12; type: cell-based; conditions: for MIC: Enterococcus faecalis; for Minimum inhibitory concentration (MIC) Efs 12: Table 1, HT series
Method: as §1

[7] = tested on: Sa UAMS-1 MRSA ATCC 49230 (Sa UAMS); test: MIC, broth microdilution, Sa UAMS; type: cell-based, S. aureus; conditions: Staphylococcus aureus
Method: as §1

[8] = tested on: S. aureus subsp. aureus Rosenbach ATCC 25904 (SA Newman); test: MIC, broth microdilution, SA Newman; type: cell-based; conditions: for MIC: Staphylococcus aureus, read-out: Minimum inhibitory concentration (MIC) Sa Newman
Method: as §1

[9] = tested on: S. aureus LAC MRSA (Sa LAC); test: MIC, broth microdilution, Sa LAC; type: cell-based; conditions: Staphylococcus aureus, read-out: Minimum inhibitory concentration (MIC) Sa LAC
Method: as §1

[10] = tested on: S. aureus subsp. aureus Rosenbach BAA-1717 (Sa USA 300); test: MIC, broth microdilution, Sa USA 300; type: cell-based; conditions: Staphylococcus aureus, read-out: Minimum inhibitory concentration (MIC) Sa USA 300
Method: as §1

[11] = tested on: S. epidermidis ATCC 700296 (Se); test: MIC, broth microdilution, Se; type: cell-based; conditions: Staphylococcus epidermidis
Method: as §1

[12] = tested on: E. faecalis ATCC 51299 (Efs 99); test: MIC, broth microdilution, Efs 99; type: cell-based; conditions: Enterococcus faecalis, ATCC51299; Table 2, HTM series; read-out: Minimum inhibitory concentration (MIC) Efs 99
Method: as §1

[13] = tested on: E. faecium ATCC 700221 (Efm 21); test: MIC, broth microdilution, Efm 21; type: cell-based; conditions: Enterococcus faecium, ATCC700221, Table 2, HTM series; read-out: Minimum inhibitory concentration (MIC) Efm 21
Method: as §1

[14] = replicates from different days separated by comma
[15] = ATCC33592, Table 1, HT series, read-out: Minimum inhibitory concentration (MIC) Sa 92
[16] = ATCC33591, Table 1, HT series, read-out: Minimum inhibitory concentration (MIC) Sa 91
[17] = ATCC25923, Table 1, HT series, replicates from different days separated by comma, read-out: Minimum inhibitory concentration (MIC) Sa 23
[18] = Table 1, HT series, replicates from different days separated by comma
[19] = ATCCBAA2312, Table 1, HT series, read-out: Minimum inhibitory concentration (MIC) Sa 12
[20] = Table 1, HT series, read-out: Minimum inhibitory concentration (MIC) Sa UAMS
[21] = ATCC700699, Table 2, HTM series, read-out: Minimum inhibitory concentration (MIC) Sa 99
[22] = ATCC33592, Table 2, HTM series, read-out: Minimum inhibitory concentration (MIC) Sa 92
[23] = ATCC33591, Table 2, HTM series, read-out: Minimum inhibitory concentration (MIC) Sa 91
[24] = ATCC25923, Table 2, HTM series, read-out: Minimum inhibitory concentration (MIC) Sa 23
[25] = ATCCBAA2312, Table 2, HTM series, read-out: Minimum inhibitory concentration (MIC) Sa 12
[26] = ATCC29212, Table 2, HTM series, read-out: Minimum inhibitory concentration (MIC) Efs 12
[27] = Table 2, HTM series, read-out: Minimum inhibitory concentration (MIC) Sa UAMS-1
[28] = ATCC700296, Table 2, HTM series, read-out: Minimum inhibitory concentration (MIC) Se

Minimum inhibitory concentration (MIC) Sa 99 [1, 14] | MIC [2, 15] [µg/mL] | MIC [3, 16] [µg/mL] | MIC [4, 17] [µg/mL] | Minimum inhibitory concentration (MIC) Sa 23 [4, 18] | MIC [5, 19] [µg/mL] | Minimum inhibitory concentration (MIC) Efs 12 [6, 14] | MIC [7, 20] [µg/mL] | MIC ([8]; Table 1, HT series) [µg/mL] | MIC ([9]; Table 1, HT series) [µg/mL] | MIC [1, 21] [µg/mL] | MIC [2, 22] [µg/mL] | MIC [3, 23] [µg/mL] | MIC [4, 24] [µg/mL] | MIC [5, 25] [µg/mL] | MIC [6, 26] [µg/mL] | MIC [7, 27] [µg/mL] | MIC ([8]; Table 2, HTM series) [µg/mL] | MIC ([10]; Table 2, HTM series) [µg/mL] | MIC [11, 28] [µg/mL] | SMILES | further results
16 μg/mL (2×) and 4 μg/mL | 16 (≈ 55.7 µM) | 8 (≈ 27.8 µM) | 4 (≈ 13.9 µM) | 8 µg/mL (≈ 27.8 µM) | 16 (≈ 55.7 µM) | 32, 32, 32 μg/mL | 16 (≈ 55.7 µM) | 8 (≈ 27.8 µM) | 16 (≈ 55.7 µM) | – | – | – | – | – | – | – | – | – | – | Oc1ccc(-c2nc(-c3ccc(F)cc3)cs2)cc1O [Compound 4, 4-(4-(4-fluorophenyl)thiazol-2-yl)benzene-1,2-diol] | MIC ([6]; ATCC29212, Table 1, HT series, replicates from different days separated by comma, read-out: Minimum inhibitory concentration (MIC) Efs 12): 32 µg/mL (≈ 111 µM)
2, 2, 2 μg/mL | 8 (≈ 23.7 µM) | 4 (≈ 11.8 µM) | 2 (≈ 5.91 µM) | 2, 2, 2 μg/mL | 8 (≈ 23.7 µM) | 16 µg/mL and 2 µg/mL and 8 µg/mL | 8 (≈ 23.7 µM) | 4 (≈ 11.8 µM) | 8 (≈ 23.7 µM) | – | – | – | – | – | – | – | – | – | – | Oc1ccc(-c2nc(-c3ccc(Cl)cc3Cl)cs2)cc1O [Compound 6, 4-(4-(2,4-dichlorophenyl)thiazol-2-yl)benzene-1,2-diol] | MIC ([1]; ATCC700699, Table 1, HT series, replicates from different days separated by comma, read-out: Minimum inhibitory concentration (MIC) Sa 99): 2 µg/mL (≈ 5.91 µM)
– | – | – | – | – | – | – | – | – | – | 1 (≈ 3.1 µM) | 1 (≈ 3.1 µM) | 1 (≈ 3.1 µM) | 1 (≈ 3.1 µM) | 1 (≈ 3.1 µM) | 2 (≈ 6.21 µM) | 1 (≈ 3.1 µM) | 1 (≈ 3.1 µM) | 1 (≈ 3.1 µM) | 1 (≈ 3.1 µM) | Oc1ccc(-c2csc(-c3cc(Cl)cc(Cl)c3)n2)cc1 [Compound 43, 4-(2-(3,5-dichlorophenyl)thiazol-4-yl)phenol] | MIC [12]: 2 µg/mL (≈ 6.21 µM); MIC [13]: 2 µg/mL (≈ 6.21 µM)
– | – | – | – | – | – | – | – | – | – | – | – | – | – | – | – | – | – | – | – | CN[C@H](CC(C)C)C(=O)N[C@H]1C(=O)N[C@@H](CC(N)=O)C(=O)N[C@H]2C(=O)N[C@H]3C(=O)N[C@H](C(=O)N[C@H](C(=O)O)c4cc(O)cc(O)c4-c4cc3ccc4O)[C@H](O)c3ccc(c(Cl)c3)Oc3cc2cc(c3O[C@@H]2O[C@H](CO)[C@@H](O)[C@H](O)[C@H]2O[C@H]2C[C@](C)(N)[C@H](O)[C@H](C)O2)Oc2ccc(cc2Cl)[C@H]1O [Vanc., Vancomycin, reference compound] | MIC ([1]; ATCC700699, read-out: Minimum inhibitory concentration (MIC) Sa 99, Table 1, HT series, replicates from different days separated by comma): 2 µg/mL (≈ 1.38 µM); MIC ([1]; ATCC700699, read-out: Minimum inhibitory concentration (MIC) Sa 99, Table 2, HTM series): 4 µg/mL (≈ 2.76 µM); MIC ([2]; ATCC33592, read-out: Minimum inhibitory concentration (MIC) Sa 92, Table 1, HT series): 1 µg/mL (≈ 0.69 µM); MIC ([2]; ATCC33592, read-out: Minimum inhibitory concentration (MIC) Sa 92, Table 2, HTM series): 2 µg/mL (≈ 1.38 µM); MIC ([3]; ATCC33591, read-out: Minimum inhibitory concentration (MIC) Sa 91): 2 µg/mL (≈ 1.38 µM); Minimum inhibitory concentration (MIC) Sa 91 ([3]; Table 2, HTM series): 2 µg/mL (≈ 1.38 µM); MIC ([4]; ATCC25923, read-out: Minimum inhibitory concentration (MIC) Sa 23): 1 µg/mL (≈ 0.69 µM); Minimum inhibitory concentration (MIC) Sa 23 ([4]; Table 2, HTM series): 1 µg/mL (≈ 0.69 µM); MIC ([5]; ATCCBAA2312, read-out: Minimum inhibitory concentration (MIC) Sa 12, Table 1, HT series): 1 µg/mL (≈ 0.69 µM); MIC ([5]; ATCCBAA2312, read-out: Minimum inhibitory concentration (MIC) Sa 12, Table 2, HTM series): 0.5 µg/mL (≈ 0.345 µM); MIC ([6]; ATCC29212, read-out: Minimum inhibitory concentration (MIC) Efs 12, Table 1, HT series, replicates from different days separated by comma): 2 µg/mL (≈ 1.38 µM); MIC ([6]; ATCC29212, read-out: Minimum inhibitory concentration (MIC) Efs 12, Table 2, HTM series): 4 µg/mL (≈ 2.76 µM); MIC ([7]; read-out: Minimum inhibitory concentration (MIC) Sa UAMS): 2 µg/mL (≈ 1.38 µM); MIC ([7]; read-out: Minimum inhibitory concentration (MIC) Sa UAMS-1): 1 µg/mL (≈ 0.69 µM); MIC [8]: 2 µg/mL (≈ 1.38 µM); Minimum inhibitory concentration (MIC) Sa Newman ([8]; Table 2, HTM series): 2 µg/mL (≈ 1.38 µM); MIC [9]: 1 µg/mL (≈ 0.69 µM); MIC [10]: 1 µg/mL (≈ 0.69 µM); MIC ([11]; ATCC700296, read-out: Minimum inhibitory concentration (MIC) Se): 2 µg/mL (≈ 1.38 µM)
– | – | – | – | – | – | – | – | – | – | 1 (≈ 2.47 µM) | 1 (≈ 2.47 µM) | 1 (≈ 2.47 µM) | 1 (≈ 2.47 µM) | 1 (≈ 2.47 µM) | 1 (≈ 2.47 µM) | 2 (≈ 4.95 µM) | 1 (≈ 2.47 µM) | 1 (≈ 2.47 µM) | 1 (≈ 2.47 µM) | Oc1ccc(-c2csc(Nc3cc(C(F)(F)F)cc(C(F)(F)F)c3)n2)cc1 [Compound 59, 4-(2-((3,5-bis(trifluoromethyl)phenyl)amino)thiazol-4-yl)phenol] | MIC [12]: 1 µg/mL (≈ 2.47 µM); MIC [13]: 1 µg/mL (≈ 2.47 µM)
